Values after ≈ are worked out from the molar mass of the structure shown. Active and inactive are the calls of the source. No cut-off for these calls is given here. Non-standard residues stand in square brackets, D forms with d. Residues, ends and D or L forms follow the SMILES beside them. Ala(9-anthryl) = N[C@@H](Cc1c2ccccc2cc2ccccc12)C(=O)O; His(τ-Bzl) = N[C@@H](Cc1cn(Cc2ccccc2)cn1)C(=O)O; Bta = N[C@@H](Cc1csc2ccccc12)C(=O)O; Cha = N[C@@H](CC1CCCCC1)C(=O)O; Orn = NCCC[C@H](N)C(=O)O
What was measured:
Candida albicans [1] = assay: Antifungal activity against Candida albicans by broth microdilution method; format: functional
Candida albicans [2] = assay: Antifungal activity against Candida albicans ATCC 90028 after 18 to 24 hrs by Alamar blue assay; format: functional
Pseudomonas aeruginosa = assay: Anti-bacterial activity against Pseudomonas aeruginosa ATCC 27853 by CLSI method; format: functional
[3] = Selectivity index ratio of cytotoxic concentration against African green monkey Vero cells to IC50 for Cryptococcus neoformans ATCC 90113; format: toxicity; conditions: read-out: Selectivity Index
Lipid bilayer [4] = assay: Binding affinity to EYPC/cholesterol small unilamellar vesicles at 0.1 uM by tryptophan fluorescence quenching assay; format: ADME
Cryptococcus neoformans [5] = assay: Induction of cell lysis in Cryptococcus neoformans ATCC 90113 biofilm assessed as cytoplasm leakage at MIC after 1 hr by photungstic acid/ammonium molybdate/uranyl acetatebased scanning based transmission electron microscopic method; format: functional
Cryptococcus neoformans [6] = assay: Induction of cell lysis in Cryptococcus neoformans ATCC 90113 biofilm assessed as formation of holes at MIC after 1 hr by osmium tetroxide staining based scanning electron microscopic method; format: functional
Vero = assay: Cytotoxicity against African green monkey Vero cells up to 10 ug/ml after 48 hrs by neutral red dye based assay; format: cell-based; conditions: chlorocebus sabaeus
Lipid bilayer [7] = assay: Binding affinity to EYPC/EYPG small unilamellar vesicles at 0.1 uM by tryptophan fluorescence quenching assay
Aspergillus fumigatus = assay: Antifungal activity against Aspergillus fumigatus ATCC 90906 after 68 to 72 hrs by Alamar blue assay; format: functional
[8] = system: Mycobacterium intracellulare; assay: Anti-bacterial activity against Mycobacterium intracellulare ATCC 23068 after 68 to 72 hrs by Alamar blue assay; format: functional, cell-based
Cryptococcus neoformans [9] = assay: Antifungal activity against Cryptococcus neoformans ATCC 90113 after 68 to 72 hrs by Alamar blue assay; format: functional
Nakaseomyces glabratus [10] = assay: Antifungal activity against Candida glabrata ATCC 90030 after 18 to 24 hrs by Alamar blue assay; format: functional; conditions: for MIC: Nakaseomyces glabratus, ATCC 90030
Pichia kudriavzevii = assay: Fungicidal activity against Candida krusei ATCC 6258 after 18 to 24 hrs by Alamar blue assay; format: functional
[11] = Proteolytic stability assessed as trypsin (unknown origin)-mediated compound hydrolysis at compound to trypsin ratio of 0.5 to […] measured after 24 hrs by RP-HPLC method; format: ADME; conditions: human
Staphylococcus aureus [12] = assay: Anti-bacterial activity against Staphylococcus aureus ATCC 29213 by CLSI method; format: functional; conditions: Staphylococcus aureus, ATCC 29213; for IC50: read-out: IC50
Escherichia coli = assay: Anti-bacterial activity against Escherichia coli ATCC 35218 by CLSI method; format: functional
Nakaseomyces glabratus [13] = assay: Fungicidal activity against Candida glabrata ATCC 90030 after 18 to 24 hrs by Alamar blue assay; format: functional
Candida albicans [14] = assay: Fungicidal activity against Candida albicans ATCC 90028 after 18 to 24 hrs by Alamar blue assay; format: functional
Staphylococcus aureus [15] = assay: Bactericidal activity against methicillin-resistant Staphylococcus aureus ATCC 33591 by CLSI method; format: functional
Staphylococcus aureus [16] = assay: Anti-bacterial activity against methicillin-resistant Staphylococcus aureus ATCC 33591 by CLSI method; format: functional; conditions: Staphylococcus aureus, ATCC 33591
Cryptococcus neoformans [17] = assay: Fungicidal activity against Cryptococcus neoformans ATCC 90113 after 68 to 72 hrs by Alamar blue assay; format: functional

| Compound | IC50 (Candida albicans [2]) | IC50 (Pseudomonas aeruginosa) | selectivity ratio [3] | Activity (Lipid bilayer [4]) | Activity (Vero) | Activity (Lipid bilayer [7]) | IC50 (Aspergillus fumigatus) | IC50 [8] | MIC (Cryptococcus neoformans [9]) [µg/mL] | MFC (Pichia kudriavzevii) [µg/mL] | IC50 (Escherichia coli) | MFC (Nakaseomyces glabratus [13]) [µg/mL] | MFC (Candida albicans [14]) [µg/mL] | MIC (Nakaseomyces glabratus [10]) [µg/mL] | IC50 (Staphylococcus aureus [12]) [µg/mL] | also measured |
| --- | --- | --- | --- | --- | --- | --- | --- | --- | --- | --- | --- | --- | --- | --- | --- | --- |
| NCCCC[C@H](NC(=O)[C@@H](Cc1ccccc1)NC(=O)[C@H](Cc1ccccc1)NC(=O)[C@@H](Cc1ccccc1)NC(=O)[C@@H](Cc1c[nH]c2ccccc12)NC(=O)[C@@H](N)Cc1c[nH]cn1)C(N)=O (H-H[dW][dF]F[dF]K-NH2) |  |  |  |  |  |  |  |  |  |  |  |  |  |  |  | IC50 (Candida albicans [1]): 6.8 µM |
| CC[C@H](C)[C@H](NC(=O)[C@H](CC1CCCCC1)NC(=O)[C@H](Cc1c[nH]c2ccccc12)NC(=O)[C@@H](N)CCCN)C(=O)N[C@H](Cc1ccccc1)C(=O)N[C@@H](Cc1cn(Cc2ccccc2)cn1)C(N)=O (H-[Orn]W[Cha]I[dF][His(τ-Bzl)]-NH2) | Not Active | Not Active | 21 to 25 | Non-Toxic | Non-Toxic | Active | Not Active | Not Active | 0.63 (≈ 0.657 µM) | 10 (≈ 10.4 µM) |  |  |  |  |  | Activity (Cryptococcus neoformans [5]): Active; Activity (Cryptococcus neoformans [6]): Active; IC50 (Nakaseomyces glabratus [10]): Not Active; Stability [11]: Stable |
| CC[C@H](C)[C@H](NC(=O)[C@H](CC1CCCCC1)NC(=O)[C@@H](Cc1c[nH]c2ccccc12)NC(=O)[C@@H](N)CCCN)C(=O)N[C@@H](Cc1c2ccccc2cc2ccccc12)C(=O)N[C@@H](Cc1cn(Cc2ccccc2)cn1)C(N)=O (H-[Orn][dW][Cha]I[Ala(9-anthryl)][His(τ-Bzl)]-NH2) |  | Not Active |  |  | Non-Toxic |  | Not Active | Not Active | 1.25 (≈ 1.18 µM) | 10 (≈ 9.45 µM) | Not Active | 20 (≈ 18.9 µM) | 20 (≈ 18.9 µM) | 20 (≈ 18.9 µM) |  | MIC (Staphylococcus aureus [12]): 5 µg/mL (≈ 4.72 µM); MBC (Staphylococcus aureus [15]): 10 µg/mL (≈ 9.45 µM); MIC (Staphylococcus aureus [16]): 10 µg/mL (≈ 9.45 µM) |
| CC[C@H](C)[C@H](NC(=O)[C@H](CC1CCCCC1)NC(=O)[C@@H](Cc1c[nH]c2ccccc12)NC(=O)[C@@H](N)CCCN)C(=O)N[C@@H](Cc1csc2ccccc12)C(=O)N[C@@H](Cc1cn(Cc2ccccc2)cn1)C(N)=O (H-[Orn][dW][Cha]I[Bta][His(τ-Bzl)]-NH2) | Not Active | Not Active |  |  | Non-Toxic |  | Not Active | Not Active | 1.25 (≈ 1.23 µM) | 20 (≈ 19.7 µM) | Not Active | 20 (≈ 19.7 µM) |  | 20 (≈ 19.7 µM) | 20 (≈ 19.7 µM) |  |
| CC[C@H](C)[C@H](NC(=O)[C@H](CC1CCCCC1)NC(=O)[C@@H](Cc1c[nH]c2ccccc12)NC(=O)[C@@H](N)CCCN)C(=O)N[C@@H](CC1CCCCC1)C(=O)N[C@@H](Cc1cn(Cc2ccccc2)cn1)C(N)=O (H-[Orn][dW][Cha]I[Cha][His(τ-Bzl)]-NH2) |  | Not Active | 21 to 25 | Non-Toxic | Non-Toxic | Active | Not Active | Not Active |  | 20 (≈ 20.7 µM) | Not Active |  | 20 (≈ 20.7 µM) | 20 (≈ 20.7 µM) | 17.5 (≈ 18.1 µM) | MFC (Cryptococcus neoformans [17]): 1.25 µg/mL (≈ 1.3 µM); MIC (Candida albicans [2]; Candida albicans, ATCC 90028): 20 µg/mL (≈ 20.7 µM); IC50 (Candida albicans [2]; Candida albicans, ATCC 90028, read-out: IC50): 17.4 µg/mL (≈ 18 µM) |

Source: ChEMBL document CHEMBL4024712, “Synthesis, stability and mechanistic studies of potent anticryptococcal hexapeptides” (Eur J Med Chem, 2017)
